The record followed here is ChEMBL document CHEMBL1131242, “6beta-Acetoxynortropane: a potent muscarinic agonist with apparent selectivity toward M2-receptors” (J Med Chem, 1998).

For assay [1], the target named is Muscarinic acetylcholine receptor M4 (Homo sapiens) (UniProt P08173). The experiment in a line: Inhibition of binding of [3H]quinuclidinyl benzilate to Muscarinic acetylcholine receptor M4 in membranes of transfected CHO cells.
The target in assay [2] is T1, Muscarinic acetylcholine receptor M4 (Homo sapiens) (UniProt P08173).
T1 sequence (whole entry): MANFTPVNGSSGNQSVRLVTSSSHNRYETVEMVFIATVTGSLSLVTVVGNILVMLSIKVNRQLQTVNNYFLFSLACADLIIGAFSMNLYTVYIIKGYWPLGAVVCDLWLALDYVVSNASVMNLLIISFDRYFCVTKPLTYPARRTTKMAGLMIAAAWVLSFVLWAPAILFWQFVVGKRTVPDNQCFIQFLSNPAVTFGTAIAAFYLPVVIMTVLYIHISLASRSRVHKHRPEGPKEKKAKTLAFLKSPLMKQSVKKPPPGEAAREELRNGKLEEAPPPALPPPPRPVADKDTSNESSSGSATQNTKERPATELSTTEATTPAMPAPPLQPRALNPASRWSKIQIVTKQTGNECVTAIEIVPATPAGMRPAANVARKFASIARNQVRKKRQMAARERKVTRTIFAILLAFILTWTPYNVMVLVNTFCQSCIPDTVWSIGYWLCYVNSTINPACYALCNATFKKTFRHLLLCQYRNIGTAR
The assay can be described thus: Inhibition of binding of [3H]quinuclidinyl benzilate to muscarinic receptors in membranes of CHO cells transfected with Muscarinic acetylcholine receptor M4.

Assay [3] addresses T2, Muscarinic acetylcholine receptor M3 (Homo sapiens, UniProt P20309). The assay can be described thus: Inhibitory activity against stimulation of [3H]inositol monophosphate accumulation in [3H]inositol-labelled CHO transfected cells mediated by Muscarinic acetylcholine receptor M3.
Assay [4] has as its target T2, Muscarinic acetylcholine receptor M3. The experiment in a line: Inhibition of binding of [3H]quinuclidinyl benzilate to human Muscarinic acetylcholine receptor M3 in membranes of transfected CHO cells at 100 uM concentration. The note with it: Membrane.
Assay [5] has as its target Muscarinic acetylcholine receptor M4 (Homo sapiens) (UniProt P08173). The experiment in a line: Inhibitory activity against [3H]-cyclic AMP accumulation in CHO transfected cells mediated by Muscarinic acetylcholine receptor M4.
In assay [6] the target is T2, Muscarinic acetylcholine receptor M3. The experiment in a line: Percentage inhibition of binding of [3H]quinuclidinyl benzilate to muscarinic receptors in membranes of CHO cells transfected with Muscarinic acetylcholine receptor M3.

T2 sequence (P20309 whole entry, looked up): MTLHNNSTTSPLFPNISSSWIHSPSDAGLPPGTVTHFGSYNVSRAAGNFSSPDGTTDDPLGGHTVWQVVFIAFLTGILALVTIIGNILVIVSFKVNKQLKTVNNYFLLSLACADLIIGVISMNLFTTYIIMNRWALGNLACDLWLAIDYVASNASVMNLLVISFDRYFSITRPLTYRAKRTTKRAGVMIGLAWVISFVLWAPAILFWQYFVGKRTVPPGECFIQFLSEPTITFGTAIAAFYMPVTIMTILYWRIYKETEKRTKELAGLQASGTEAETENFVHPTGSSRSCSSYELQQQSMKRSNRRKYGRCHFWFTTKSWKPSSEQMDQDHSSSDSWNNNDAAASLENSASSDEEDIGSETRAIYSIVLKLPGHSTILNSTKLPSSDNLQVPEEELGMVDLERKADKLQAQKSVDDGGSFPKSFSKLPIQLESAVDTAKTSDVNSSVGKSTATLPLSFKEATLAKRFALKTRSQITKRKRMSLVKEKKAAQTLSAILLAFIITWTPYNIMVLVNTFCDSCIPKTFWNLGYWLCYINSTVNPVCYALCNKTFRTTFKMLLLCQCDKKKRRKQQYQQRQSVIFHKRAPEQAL

A word on the Ki: it is the dissociation constant of the complex between target and ligand, obtained from inhibition or displacement. Lower therefore signals a stronger hold on the target. One may read the EC50 as the concentration needed to bring the measured effect to its halfway point. For orientation: inhibition means the drop in the measured response relative to a control, in per cent. As usually defined, the IC50 is the concentration at which inhibition is half-maximal. A higher IC50 goes with lower potency. For `C[C@@H]1O[C@H](C[N+](C)(C)C)C[C@H]1O` [MUSCARINE], the Ki in assay [1] and in assay [2] was 1400 nM throughout. Also, the EC50 in assay [3] is 130 nM. In addition, the inhibition in assay [4] and in assay [6] was 28% in each case. The compound also displayed an IC50 in assay [5] of 470 nM.
